Literature values, collected in patent US20240190825A1, “PROCESS FOR PREPARATION OF CABOZANTINIB” (BIOCON LIMITED, priority 2021, published 2024).

SMILES: COc1cc2nccc(Oc3ccc(NC(=O)C4(C(=O)Nc5ccc(F)cc5)CC4)cc3)c2cc1OC.O=C(O)C[C@H](O)C(=O)O [Cabozantinib (S)-malate salt, N-(4-(6,7-dimethoxyquinolin-4-yloxy)phenyl)-N′-(4fluorophenyl)cyclopropane-1,1-dicarboxamide, (2S)-hydroxybutanedioate]
- solubility in aqueous media (aqueous media): practically insoluble

SMILES: COc1cc2nccc(Oc3ccc(NC(=O)C4(C(=O)Nc5ccc(F)cc5)CC4)cc3)c2cc1OC.O=C(O)C[C@H](O)C(=O)O [crystalline form M4]
- solubility of crystal form (as disclosed in WO2020057622 A1 on WO2015177758 A1 forms): low

SMILES: COc1cc2nccc(Oc3ccc(NC(=O)C4(C(=O)Nc5ccc(F)cc5)CC4)cc3)c2cc1OC [Cabozantinib, N-(4-(6,7-dimethoxyquinolin-4-yloxy)phenyl)-N′-(4Fluorophenyl) cyclopropane-1,1-dicarboxamide]
- water solubility (water): poorly water-soluble
